# Literature values in patent US12599598B2, “Osmotic dosage forms comprising deutetrabenazine and methods of use thereof” (Auspex Pharmaceuticals, Inc., priority 2020, dated 2026).
# Settings: in vivo
structure (smiles),measurement,value
"[2H]C([2H])([2H])Oc1cc2c(cc1OC([2H])([2H])[2H])[C@H]1CC(=O)[C@H](CC(C)C)CN1CC2 [Deutetrabenazine, (RR,SS)-1,3,4,6,7,11b-hexahydro-9,10-di(methoxy-d3)-3-(2-methylpropyl)-2H-benzo[a]quinolizin-2-one]","half-life of its active metabolites, relative to tetrabenazine",increased half-life
